Data as given in US12215351B2, “Methods for inducing hematopoietic stem cell specificity” (THE CHILDREN'S MEDICAL CENTER CORPORATION, priority 2017, dated 2025).

Experiments:
Runx1:GFP = test: High-throughput image-based chemical screen in Runx1:GFP zebrafish embryo cultures; type: cell-based; conditions: confirmed by a dose response curve
Procedure: Stage-matched zebrafish embryos were dissociated at 24 hpf and grown in medium composed of 85% LDF medium, 5% FBS, and 10% embryo extract. LDF medium contains 50% Leibowitz's L-15 (Invitrogen), 20% DMEM (Invitrogen), and 30% DMEM/F-12 (Invitrogen), supplemented with 2% B27 (Gibco), 15 mM HEPES (Gibco), 1% L-glutamine (Gibco), 1% N2 (Gibco), 10 nM sodium selenite (Sigma), 0.018% sodium bicarbonate (Gibco), 0.04% Primocin (Invivogen), and 0.2% Penicillin-Streptomycin (Gibco). All zebrafish experiments and procedures were performed as per protocols approved by the Boston Children's Hospital IACUC.
To screen each chemical library plate in duplicate, two 384-well plates were coated with 0.1% gelatin. Runx1:GFP^10 embryos at 24 hpf were washed with E3 embryo water and dechorionated with pronase. Embryos were washed with E3 embryo water, resuspended in blastomere media, mechanically homogenized, and filtered through a 40 µm nylon mesh filter. […]
A 4× image of the nuclear and fluorescent expression from the entire well was then thresholded and percent area was computed using ImageJ/Fiji. […] From that standard curve, residuals were calculated for each treated well and divided by the standard deviation in the control wells to obtain the z-score of each chemical treatment. […]

[1] = test system: Runx1:GFP positive cells in the CHT; test: Runx1:GFP positive cells in the CHT of live embryos (confocal imaging); type: in vivo, zebrafish; conditions: 5 μM
Procedure: Transgenic Runx1:GFP embryos from the same clutch were treated at the time points indicated (n>10 embryos per treatment group) with 5 μM Ro5-3335 diluted in E3. Live embryos were embedded in 0.8% low-melting point agarose containing 0.04 mg/mL Tricaine and imaged on a Nikon Eclipe Ti microscope with 20× Plan-Apo DIC N.A. 0.75. CHT cells were counted blindly in Z-stack image projections processed on Imaris software (Bitplane).

[2] = test system: Runx1:GFP+ cells derived from the zebrafish embryo culture; test: Zebrafish transplantation of cultured Runx1:GFP+ cells into casper recipients, whole kidney marrow FACS; type: in vivo; conditions: cells cultured 2 days with 50 μM, analyzed approximately 3 months post-transplant
Procedure: Runx1:GFP ubi:mCherry embryos were dissociated at 24 hpf and plated with 50 μM Ro5-3335 or DMSO. After two days in culture, double-positive cells were sorted and transplanted into 48 hpf casper recipients as previously described^10. The recipients were grown to adulthood and the whole kidney marrow was dissected at approximately 3 months and analyzed in an LSRII (BD Biosciences). As negative and positive controls, the kidney marrow of two casper adults and one Runx1:GFP ubi:mCherry adult were analyzed.

[3] = test system: human iPSC-derived hemogenic endothelium cells; test: Human EHT culture of iPSC-derived hemogenic endothelium, FACS for CD34 and CD45; type: cell-based; conditions: day 6 of EHT
Procedure: (§1) Human iPSCs were cultured and differentiated into embryoid bodies as previously described^28. At day 8 of embryoid body differentiation, HE cells were magnetically purified for EHT, and treated with DMSO or Ro5-3335. FACS analysis for CD34 and CD45 was performed at day 6 of EHT using an LSRFortessa™ (BD Biosciences). In the case of the RUNX1c-reporter cell line^21, RUNX1c activity was analyzed at day 4 of EHT using an LSR Fortessa (BD Biosciences).

RUNX1c+24 reporter = test: RUNX1c-enhancer reporter cell line undergoing EHT; type: cell-based, human; conditions: day 4 of EHT
Procedure: as §1

[4] = test system: iPSC-derived human hemogenic endothelium cells; test: Intrafemoral transplantation of treated human HE cells into NOD/LtSz-scidIL2Rgnull mice; type: in vivo; conditions: HE cells treated with 25 μM, 6 weeks post-transplant
Procedure: Intrafemoral transplantations were performed as described previously^28. NOD/LtSz-scidIL2Rgnull mice (Jackson Laboratory) were transplanted with approximately 100,000 HE cells at day 4 that were treated with 25 μM Ro5-3335 or DMSO. Due to the limited cell number that can be obtained during EHT, the transplants were performed over the course of several weeks.

O=C1CN=C(c2ccc[nH]2)c2cc(Cl)ccc2N1 [Ro5-3335, 7-Chloro-1,3-dihydro-5-(1H-pyrrol-2-yl)-2H-1,4-benzodiazepin-2-one]
GFP signal in the embryo cultures (Runx1:GFP): increased | number of Runx1:GFP+ cells in the CHT at 54 hpf ([1]; treated 24-30 hpf, imaged at 54 hpf): significant increase | number of Runx1:GFP+ cells in the CHT at 72 hpf ([1]; treated 24-30 hpf, same embryos at 72 hpf): A significant difference at 72 hpf was not observed | Runx1:GFP positive cells in the CHT ([1]; treated 24-48 hpf, imaged at 54 hpf): increased | Runx1:GFP positive cells in the CHT ([1]; treated 24-54 hpf, imaged at 54 hpf): increased | Runx1:GFP positive cells in the CHT ([1]; treated 24-72 hpf, imaged at 72 hpf): increased | GFP+ chimerism in kidney marrow of adult casper recipients [2]: enhanced | CD34+CD45+ cells [3]: significant increase | RUNX1c reporter activity (RUNX1c+24 reporter): dose-dependent effect | B- and T-cells (CD19, CD3) [4]: not detected | engraftment in the contralateral leg [4]: no engraftment detected | engraftment of myeloid cells (CD33) [4]: clear population expressing the myeloid marker CD33 | chimerism of human CD45+ cells in the bone marrow ([4]; one mouse): 0.017%
